How the values were obtained:
GluN2B = experiment: Western blot of GluN2B protein in cultured fetal cortical cells; type: cell-based, mice; details: for GluN2B expression, Western blot results, Mean: relative value, vehicle set to 1, treated for 24 hours, N 3 or more; for Effect on GluN2B expression compared to the vehicle: comment on Table 6
Experimental: The amount of GluN2B reacted with the compound of the present disclosure was measured using Western blot. The fetal cerebral cortex was extracted from mice at 17 days of gestation, dissociated into single cells, cultured for 13 days, and treated with BnH drugs for 24 hours. The drug-treated cells were subjected to protein lysate preparation using RIPA protein lysis buffer containing protease and phosphatase inhibitors. The protein concentration was determined using a BCA protein assay kit (Pierce Biotechnology) using bovine serum albumin as a standard. Equal amounts of protein (20 μg per lane) were separated by electrophoresis on SDS-polyacrylamide gels at 90 V for 2 hours, then transferred from the SDS-polyacrylamide gel to PVDF membrane at 100 V for 1 hour. Then, primary reaction with GluN2B antibody (ab65783, Abcam) was performed at 4° C. for 1 day, washed three times at 10-minutes intervals with 1×PBT, and secondary reaction was performed with anti-mouse antibody (sc-2357, Santa Cruz) for 1 hour, followed by washing three times at 10-minutes intervals with 1×PBT. Western blotting was performed as described above to confirm GluN2B protein expression. Subsequently, each blot was re-probed using anti-β-actin antibody (sc-47778, Santa Cruz). Housekeeping protein β-actin was detected as a normalization control.
The increase and decrease of BnH12 series were confirmed by setting the vehicle to 1 (N for each group was 3 or more).
Using the experimental procedure described in Example 3, it was determined whether various BnH12 series compounds increase GluN2B expression, and the results are shown in Table 6. These in vitro experimental results are expressed as relative values to the group (vehicle) that was not treated with the compound, with the effect of the group set to 1.

293T cells = experiment: Cytotoxicity test (CCK-8 cell viability) in 293T cells; type: cell-based, human; details: 24 hours co-incubation, 293T cell line, % of control
Experimental: Human undifferentiated neuroblastoma cell line SH-SY5Y and human embryonic kidney cell line (HEK)-293T were purchased from Korean Cell Line Bank (Korea) and Takara (Japan), respectively. Cells were grown in HyClone Minimal Essential Medium (MEM) and Dulbecco's Modified Eagle Medium (DMEM), respectively, supplemented with 10% (v/v) fetal bovine serum (FBS), penicillin (100 U/mL), and streptomycin ([…]). Cells were maintained in a humidified atmosphere of 95% air and 5% CO2 at 37° C. Cells were passaged 10 times at maximum. Cells were dissociated using 0.05% trypsin-EDTA solution and the cells were seeded in new culture dishes for maintenance.
To examine the cytotoxicity of compounds described herein in human cell lines, SH-SY5Y and 293T cells were used. Approximately 8,000 cells (for 293T) and 15,000 cells (for SH-SY5Y) were plated per well of a 96-well plate (SPL Life Sciences Co., Ltd., Pocheon, Korea). After incubating at 37° C. for 24 hours in a humidified atmosphere containing 5% CO2, the culture medium was replaced by a series of concentrations of test compounds diluted in the corresponding culture medium. The time of co-incubation was 24 hours and six replicates were made for each measurement. Finally, 10 μL of CCK-8 reagent (Dojindo Laboratories, Rockville, MD) was added to each well, and after incubation at 37° C. for 3 minutes, the OD at 450 nm was measured using a multifunction microplate reader (Tecan Infinite M200 Pro). These measurements were compared to that of a control and expressed as a percentage of the control to calculate cell viability. The IC50 value was calculated using SPSS software. To do this, the absorbance of the blank wells with only growth medium is subtracted from the values or the wells with cells. The readout value of background (vehicle) was set as a 100% viability, and then the percent viability for each test solution was calculated.
Cell viability (%)=[(As-Ab)/(Ac-Ab)]×100
The data was presented as the mean value and standard error of the mean (S.E.M.). Statistical analysis was performed with the one-way ANOVA with Tukey's post hoc test (GraphPad Prism 5 software package, version 5.02, GraphPad Software Inc. USA). Significance was accepted at p<0.05.

With `C[C@H]1CC[C@@H](C(=O)O)CN1C(=O)CC1CCCCC1` [BnH12006, (3R,6S)-1-(2-cyclohexylacetyl)-6-methylpiperidine-3-carboxylic acid] as the compound, how does the “GluN2B expression, Western blot results, Mean” value (“GluN2B expression … Mean” below) (GluN2B) read?
The value was 1.238.

And the “Cell viability test results (CCK) 10 uM” value (293T cells)?
The value was 99%<.

And the “Cell viability test results (CCK) 100 uM” value (293T cells)?
Its value is 95%<.

For `C[C@H]1CC[C@@H](C(=O)O)CN1CCc1ccc(F)cc1Cl` [BnH12010, (3R,6S)-1-(2-chloro-4-fluorophenethyl)-6-methylpiperidine-3-carboxylic acid], which “GluN2B expression … Mean” value (GluN2B) is on record?
The value was 1.074.

Which “Effect on GluN2B expression compared to the vehicle” value (from here on “Effect … compared to the vehicle”) (GluN2B) does the source give for `C[C@H]1CC[C@@H](C(=O)O)CN1C(=O)Cc1cccc([N+](=O)[O-])c1` [BnH12073, (3R,6S)-6-methyl-1-(2-(3-nitrophenyl)acetyl)piperidine-3-carboxylic acid] here?
The value was “excellent effects”.

What about the “GluN2B expression … Mean” value (GluN2B) of the same compound?
Its value is 2.013.

What about the “Cell viability test results (CCK) 10 uM” value (293T cells) of the same compound?
Its value is 85%<.

And the “Cell viability test results (CCK) 100 uM” value (293T cells)?
The value was 85%<.

What does the source list for `C[C@H]1CC[C@@H](C(=O)O)CN1C(=O)Cc1cccc(N)c1` [BnH12074, (3R,6S)-1(2-(3-aminophenyl)acetyl)-6-methylpiperidine-3-carboxylic acid]?
Effect on GluN2B expression compared to the vehicle (GluN2B): excellent effects; GluN2B expression, Western blot results, Mean (GluN2B): 2.146; Cell viability test results (CCK) 10 uM (293T cells): 85%<; Cell viability test results (CCK) 100 uM (293T cells): 80%<

Which “Effect … compared to the vehicle” value (GluN2B) does the source give for `CC(C)C1CCC(C(=O)O)CN1C(=O)Cc1ccc(F)cc1Cl` (stereo not shown) [BnH12096, 1-(2-(2-chloro-4-fluorophenyl)acetyl)-6-isopropylpiperidine-3-carboxylic acid] here?
Its value is “excellent effects”.

What about the “GluN2B expression … Mean” value (GluN2B) of the same compound?
The value was 2.848.

What about the “Cell viability test results (CCK) 10 uM” value (293T cells) of the same compound?
The value was 70%<.

What about the “Cell viability test results (CCK) 100 uM” value (293T cells) of the same compound?
Its value is 65%<.

How did the “GluN2B expression … Mean” value (GluN2B) turn out when `C[C@@H]1CC[C@H](C(=O)[O-])CN1C(=O)Cc1cccnc1.[Na+]` [BnH12068, Sodium (3S,6R)-6-methyl-1-(2-(pyridin-3-yl)acetyl)piperidine-3-carboxylate] was run?
The value was 1.286.

Which “GluN2B expression … Mean” value (GluN2B) does the source give for `C[C@H]1CCCCN1C(=O)Cc1ccc(F)cc1Cl` [BnH12005, (S)-2-(2-chloro-4-fluorophenyl)-1-(2-methylpiperidin-1-yl)ethan-1-one] here?
The value was 1.206.

And the “Cell viability test results (CCK) 10 uM” value (293T cells)?
The value was 99%<.

And the “Cell viability test results (CCK) 100 uM” value (293T cells)?
Its value is 90%<.

Which results are given for `C[C@H]1CC[C@@H](C(=O)O)CN1C(=O)c1ccccc1` [BnH12065, (3R,6S)-1-benzoyl-6-methylpiperidine-3-carboxylic acid]?
GluN2B expression, Western blot results, Mean (GluN2B): 1.326; Cell viability test results (CCK) 10 uM (293T cells): 95%<; Cell viability test results (CCK) 100 uM (293T cells): 95%<

How did the “GluN2B expression … Mean” value (GluN2B) turn out when `O=C(NO)[C@@H]1CCCN1C(=O)Cc1ccc(F)cc1Cl` [BnH12016, (S)-1-(2-(2-chloro-4-fluorophenyl)acetyl)-N-hydroxypyrrolidine-2-carboxamide] was run?
Its value is 1.311.

And the “Cell viability test results (CCK) 10 uM” value (293T cells)?
The value was 99%<.

What about the “Cell viability test results (CCK) 100 uM” value (293T cells) of the same compound?
Its value is 90%<.

Which results are given for `C[C@H]1CC[C@@H](C(=O)O)CN1C(=O)Cc1ccccc1` [BnH12007, (3R,6S)-6-methyl-1-(2-phenylacetyl)piperidine-3-carboxylic acid]?
GluN2B expression, Western blot results, Mean (GluN2B): 1.311; Cell viability test results (CCK) 10 uM (293T cells): 95%<; Cell viability test results (CCK) 100 uM (293T cells): 95%<

Which “Effect … compared to the vehicle” value (GluN2B) does the source give for `O=C(NO)[C@H]1CCCN1C(=O)c1ccccc1` [BnH12018, (R)-1-benzoyl-N-hydroxypyrrolidine-2-carboxamide] here?
The value was “excellent effects”.

And the “GluN2B expression … Mean” value (GluN2B)?
The value was 1.381.

What about the “Cell viability test results (CCK) 10 uM” value (293T cells) of the same compound?
Its value is 90%<.

What about the “Cell viability test results (CCK) 100 uM” value (293T cells) of the same compound?
Its value is 90%<.

`C[C@H]1CC[C@@H](C(=O)[O-])CN1C(=O)Cc1cccnc1.[Na+]` [BnH12038, Sodium (3R,6S)-6-methyl-1-(2-(pyridin-3-yl)acetyl)piperidine-3-carboxylate] was tested. Which “Effect … compared to the vehicle” value (GluN2B) did it give?
The value was “excellent effects”.

And the “GluN2B expression … Mean” value (GluN2B)?
Its value is 1.811.

What about the “Cell viability test results (CCK) 10 uM” value (293T cells) of the same compound?
The value was 85%<.

And the “Cell viability test results (CCK) 100 uM” value (293T cells)?
The value was 85%<.

Which results are given for `C[C@H]1CC[C@@H](C(=O)O)CN1C(=O)Cc1ccc(N)cc1` [BnH12070, (3R,6S)-1-(2-(4-aminophenyl)acetyl)-6-methylpiperidine-3-carboxylic acid]?
GluN2B expression, Western blot results, Mean (GluN2B): 1.302; Cell viability test results (CCK) 10 uM (293T cells): 99%<; Cell viability test results (CCK) 100 uM (293T cells): 90%<

How did the “Cell viability test results (CCK) 10 uM” value (293T cells) turn out when `C[C@H]1CC[C@@H](C(=O)O)CN1C(=O)Cc1cccs1` [BnH12034, (3R,6S)-6-methyl-1-(2-(thiophen-2-yl)acetyl)piperidine-3-carboxylic acid] was run?
Its value is 90%<.

What about the “Cell viability test results (CCK) 100 uM” value (293T cells) of the same compound?
The value was 85%<.

What does the source list for `O=C(O)[C@@H]1CCCN(C(=O)Cc2ccc(F)cc2Cl)C1` [BnH12004, (R)-1-(2-(2-chloro-4-fluorophenyl)acetyl)piperidine-3-carboxylic acid]?
Cell viability test results (CCK) 10 uM (293T cells): 95%<; Cell viability test results (CCK) 100 uM (293T cells): 85%<

With `C[C@H]1CC[C@@H](C(=O)O)CN1C(=O)Cc1ccc(F)cc1` [BnH12031, (3R,6S)-1-(2-(4-fluorophenyl)acetyl)-6-methylpiperidine-3-carboxylic acid] as the compound, how does the “Cell viability test results (CCK) 10 uM” value (293T cells) read?
The value was 90%<.

And the “Cell viability test results (CCK) 100 uM” value (293T cells)?
The value was 75%<.

For `COC(=O)[C@@H]1CC[C@H](C)N(C(=O)Cc2ccc(F)cc2Cl)C1` [BnH12020, Methyl (3R,6S)-1-(2-(2-chloro-4-fluorophenyl)acetyl)-6-methylpiperidine-3-carboxylate], which “Cell viability test results (CCK) 10 uM” value (293T cells) is on record?
The value was 95%<.

And the “Cell viability test results (CCK) 100 uM” value (293T cells)?
Its value is 95%<.

For `C[C@H]1CC[C@@H](C(=O)O)CN1C(=O)Cc1ccc(C(C)(C)C)cc1` [BnH12029, (3R,6S)-1-(2-(4-(tert-butyl)phenyl)acetyl)-6-methylpiperidine-3-carboxylic acid], which “Cell viability test results (CCK) 10 uM” value (293T cells) is on record?
The value was 99%<.

And the “Cell viability test results (CCK) 100 uM” value (293T cells)?
The value was 80%<.

What does the source list for `O=C(O)[C@@H]1CCCN1C(=O)Cc1ccc(F)cc1Cl` [BnH12013, (2-(2-chloro-4-fluorophenyl)acetyl)-L-proline]?
Cell viability test results (CCK) 10 uM (293T cells): 99%<; Cell viability test results (CCK) 100 uM (293T cells): 99%<

Which “Cell viability test results (CCK) 10 uM” value (293T cells) does the source give for `C[C@H]1CC[C@@H](C(=O)O)CN1C(=O)Cc1ncccn1` [BnH12041, (3R,6S)-6-methyl-1-(2-(pyrimidin-2-yl)acetyl)piperidine-3-carboxylic acid] here?
Its value is 90%<.

What about the “Cell viability test results (CCK) 100 uM” value (293T cells) of the same compound?
Its value is 70%<.

How did the “Cell viability test results (CCK) 10 uM” value (293T cells) turn out when `O=C(NO)[C@H]1CCCN1C(=O)Cc1ccc(F)cc1Cl` [BnH12014, (R)-1-(2-(2-chloro-4-fluorophenyl)acetyl)-N-hydroxypyrrolidine-2-carboxamide] was run?
Its value is 99%<.

What about the “Cell viability test results (CCK) 100 uM” value (293T cells) of the same compound?
The value was 90%<.

With `C[C@H]1CC[C@@H](C(=O)O)CN1C(=O)c1ccc(F)cc1Cl` [BnH12011, (3R,6S)-1-(2-chloro-4-fluorobenzoyl)-6-methylpiperidine-3-carboxylic acid] as the compound, how does the “Cell viability test results (CCK) 10 uM” value (293T cells) read?
The value was 95%<.

And the “Cell viability test results (CCK) 100 uM” value (293T cells)?
The value was 95%<.

Which results are given for `CCOC(=O)[C@@H]1CC[C@H](C)N(C(=O)Cc2ccc(F)cc2Cl)C1` [BnH12021, Ethyl (3R,6S)-1-(2-(2-chloro-4-fluorophenyl)acetyl)-6-methylpiperidine-3-carboxylate]?
Cell viability test results (CCK) 10 uM (293T cells): 90%<; Cell viability test results (CCK) 100 uM (293T cells): 80%<

What does the source list for `O=C(O)[C@H]1CCCN1C(=O)Cc1ccc(F)cc1Cl` [BnH12012, (2-(2-chloro-4-fluorophenyl)acetyl)-D-proline]?
Cell viability test results (CCK) 10 uM (293T cells): 95%<; Cell viability test results (CCK) 100 uM (293T cells): 90%<

With `CCC1CCC(C(=O)O)CN1C(=O)Cc1ccc(F)cc1Cl` (stereo not shown) [BnH12094, 1-(2-(2-chloro-4-fluorophenyl)acetyl)-6-ethylpiperidine-3-carboxylic acid] as the compound, how does the “Cell viability test results (CCK) 10 uM” value (293T cells) read?
The value was 80%<.

What about the “Cell viability test results (CCK) 100 uM” value (293T cells) of the same compound?
Its value is 70%<.
